Results published in US20030083357A1, “Oxime derivatives for the treatment of dyslipidemia and hypercholesteremia” (priority 2001, published 2003).
Entries after “also recorded” stand apart in the source; their conditions may differ.

Tests used:
[1] = test system: Sprague Dawley Rats Maintained on a High Cholesterol Atherogenic Diet; experiment: Oral treatment of hypercholesterolemia in Sprague Dawley rats on a high cholesterol atherogenic diet; type: in vivo, rat; settings: 10 mg/kg once daily by oral gavage in sesame oil, five days, p≦0.01
Protocol: Six week-old male Sprague Dawley rats (HSD, Harlan) were housed in a fixed 12-12- hr artificial light-dark cycle, and maintained on a high cholesterol, atherogenic diet ad libitum (#C13002, Research Diets, NJ).
Animals were maintained on this diet throughout the course of the study.
Following six days of maintenance on the high cholesterol diet, the animals were bled from the tail vein (100-200 μL of whole blood) and serum levels of total cholesterol were measured in duplicate (Infinity Cholesterol Kit; Sigma, St. Louis, Mo.). Based on these initial measures, animals were sorted into groups with approximately the same average serum cholesterol levels. Once sorted, the animals were housed three per cage and maintained on the high cholesterol diet ad libitum.
Treatment groups(n=6/group):
1) Lean Sprague Dawley control (sesame oil)
2) High cholesterol fed control (sesame oil)
3) Compound 1 in sesame oil (10 mg/kg; once daily)
Drug is prepared by mixing Compound 1 in sesame oil, and administered to animals in a volume of 3 ml/kg/dose. Drug is administered by oral gavage daily for five consecutive days.
To monitor the effect of Compound 1, animals were bled from the tail vein five days after commencement of oral treatment. Serum cholesterols were measured in duplicate. […]

[2] = test system: Obese, Glucose Intolerant Zucker Fatty Rats (fa/fa); experiment: Glucose tolerance test in obese, glucose intolerant Zucker Fatty Rats (fa/fa) after oral treatment; type: in vivo, rat; settings: 10 mg/kg once daily by oral gavage in sesame oil, 1 week; 2 g/kg oral glucose after 12 hr fast, serum glucose at 0.5, 1, 2 hours; p<0.05 and p<0.01; FIG. 3
Protocol: Ten week-old male Zucker Fatty Rats (fa/fa; Harlan) were housed in a fixed 12-12- hr artificial light-dark cycle, and maintained on a standard diet provided ad libitum. Animals were allowed two days to acclimate in this experimental environment prior to the initiation of the study.
Prior to initiation of treatment, the animals were bled from the tail vein (100-200 μL of whole blood) and serum levels of triglycerides were measured in duplicate (Infinity kits; Sigma, St. Louis, Mo.). Based on these initial measures, animals were sorted into groups with approximately the same average serum triglyceride levels. Once sorted, the animals were housed one per cage and provided standard rodent diet ad libitum.
Treatment groups (n=5/group):
2) Compound 1 in sesame oil (10 mg/kg once daily)
Drug is prepared by mixing Compound 1 in sesame oil, and administered to animals in a volume of 3 ml/kg/dose. Drug is administered by oral gavage once daily.
To monitor the effect of Compound 1, animals were tested in a glucose tolerance test. One day prior to the tolerance test, the animals were fasted overnight (12 hr fast). Animals were then bled at 0 hours to establish baseline glucose levels. […] The animals were then bled 0.5, 1, and 2 hours later and serum glucose levels were measured in duplicate. […]

Compound: COc1ccc(/C=N/O)cc1-c1cc2c(cc1C)C(C)(C)CCC2(C)C [Compound 1, 3-(3,5,5,8,8-Pentamethyl-5,6,7,8-tetrahydro-2-naphthyl)-4-methoxybenzaldehyde oxime]
- total serum cholesterol ([1]; compared to control animals on the same atherogenic diet, FIG. 1): significantly reduced
- LDL cholesterol levels ([1]; compared to controls, FIG. 2): reduced
- melting point: 152 °C
- glucose clearance rate (glucose tolerance test) [2]: improvement of glucose tolerance; also recorded: significant increase
